Measurements taken from US20180318279A1 (priority 2015, published 2018).

Assays:
[1] = tested on: injured hind paw; settings: rat, in vivo; cited from earlier work
[2] = Skin permeation with human abdominal cadaver skin and absorption estimates drawn from it; settings: assuming 3.8 fold increase in drug delivery
[3] = in vivo; cited from earlier work

Row | SMILES | antinociception [1] | estimated increased penetration with damaged stratum corneum [2] | half-life, rapid phase one [3] | half-life, slow phase two [3] | systemic effects following topical application [1]
1 | CN(C)C(=O)C(CCN1CCC(O)(c2ccc(Cl)cc2)CC1)(c1ccccc1)c1ccccc1 [loperamide, 4-[4-(4-Chlorophenyl)-4-hydroxypiperidin-1-yl]-N,N-dimethyl-2,2-diphenylbutanamide] | rapid dose-dependent antinociception | 0.057 mg | 2.3 h | 23 h | 
2 | CN1CC[C@]23c4c5ccc(O)c4O[C@H]2[C@@H](O)C=C[C@H]3[C@H]1C5 [morphine] |  |  |  |  | revealed systemic effects
